Data from US8927717B1, “Thiochromeno[2,3-c]quinolin-12-one derivatives, preparation method and application thereof” (National Defense Medical Center, priority 2014, dated 2015).
Values belong to the compound of their own block, whether it stands above or below them.

How the values were obtained:
TOP I (Topoisomerase I) [1] = molecular target: T1, TOP I (Topoisomerase I) (Homo sapiens, UniProt P11387); assay: TOP I mediated supercoiled DNA relaxation assay; type: biochemical; settings: primary assay at 25 and/or 50 μM
T1 construct: purchased TopoGEN TG2005H
T1 sequence (P11387 1-765): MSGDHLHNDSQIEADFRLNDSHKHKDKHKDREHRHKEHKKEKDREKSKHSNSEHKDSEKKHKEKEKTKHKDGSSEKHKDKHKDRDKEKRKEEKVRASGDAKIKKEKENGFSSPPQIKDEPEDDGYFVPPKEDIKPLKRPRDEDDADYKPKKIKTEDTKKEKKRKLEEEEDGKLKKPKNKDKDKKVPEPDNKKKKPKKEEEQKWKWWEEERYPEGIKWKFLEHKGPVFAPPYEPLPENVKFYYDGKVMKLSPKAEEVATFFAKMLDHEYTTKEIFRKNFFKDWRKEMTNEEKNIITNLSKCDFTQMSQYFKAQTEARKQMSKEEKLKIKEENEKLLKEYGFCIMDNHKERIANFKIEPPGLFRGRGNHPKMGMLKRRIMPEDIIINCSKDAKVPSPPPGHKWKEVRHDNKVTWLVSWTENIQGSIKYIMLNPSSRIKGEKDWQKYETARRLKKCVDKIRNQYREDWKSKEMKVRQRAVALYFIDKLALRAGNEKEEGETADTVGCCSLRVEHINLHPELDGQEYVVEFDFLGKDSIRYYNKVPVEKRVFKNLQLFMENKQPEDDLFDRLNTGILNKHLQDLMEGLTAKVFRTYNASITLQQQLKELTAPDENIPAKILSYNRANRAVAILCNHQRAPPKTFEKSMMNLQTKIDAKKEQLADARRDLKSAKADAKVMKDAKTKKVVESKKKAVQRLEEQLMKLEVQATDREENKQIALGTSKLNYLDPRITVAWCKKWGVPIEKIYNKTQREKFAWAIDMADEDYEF
Description: According to the cell cytotoxicity, compounds 5, 7, 8, 16, 19, N2, N7, N8, N9, N14-N19, and N25 were also selected for primary TOP I and II activities assays at 25 and/or 50 μM (FIG. 2-4).

[2] = molecular target: T2, TOP II (Topoisomerase II) (Homo sapiens, UniProt P11388); assay: TOP II-catalyzed relaxation of plasmid DNA assay; type: biochemical
T2 construct: purchased TopoGEN TG-2000H-1
T2 sequence (P11388 whole entry): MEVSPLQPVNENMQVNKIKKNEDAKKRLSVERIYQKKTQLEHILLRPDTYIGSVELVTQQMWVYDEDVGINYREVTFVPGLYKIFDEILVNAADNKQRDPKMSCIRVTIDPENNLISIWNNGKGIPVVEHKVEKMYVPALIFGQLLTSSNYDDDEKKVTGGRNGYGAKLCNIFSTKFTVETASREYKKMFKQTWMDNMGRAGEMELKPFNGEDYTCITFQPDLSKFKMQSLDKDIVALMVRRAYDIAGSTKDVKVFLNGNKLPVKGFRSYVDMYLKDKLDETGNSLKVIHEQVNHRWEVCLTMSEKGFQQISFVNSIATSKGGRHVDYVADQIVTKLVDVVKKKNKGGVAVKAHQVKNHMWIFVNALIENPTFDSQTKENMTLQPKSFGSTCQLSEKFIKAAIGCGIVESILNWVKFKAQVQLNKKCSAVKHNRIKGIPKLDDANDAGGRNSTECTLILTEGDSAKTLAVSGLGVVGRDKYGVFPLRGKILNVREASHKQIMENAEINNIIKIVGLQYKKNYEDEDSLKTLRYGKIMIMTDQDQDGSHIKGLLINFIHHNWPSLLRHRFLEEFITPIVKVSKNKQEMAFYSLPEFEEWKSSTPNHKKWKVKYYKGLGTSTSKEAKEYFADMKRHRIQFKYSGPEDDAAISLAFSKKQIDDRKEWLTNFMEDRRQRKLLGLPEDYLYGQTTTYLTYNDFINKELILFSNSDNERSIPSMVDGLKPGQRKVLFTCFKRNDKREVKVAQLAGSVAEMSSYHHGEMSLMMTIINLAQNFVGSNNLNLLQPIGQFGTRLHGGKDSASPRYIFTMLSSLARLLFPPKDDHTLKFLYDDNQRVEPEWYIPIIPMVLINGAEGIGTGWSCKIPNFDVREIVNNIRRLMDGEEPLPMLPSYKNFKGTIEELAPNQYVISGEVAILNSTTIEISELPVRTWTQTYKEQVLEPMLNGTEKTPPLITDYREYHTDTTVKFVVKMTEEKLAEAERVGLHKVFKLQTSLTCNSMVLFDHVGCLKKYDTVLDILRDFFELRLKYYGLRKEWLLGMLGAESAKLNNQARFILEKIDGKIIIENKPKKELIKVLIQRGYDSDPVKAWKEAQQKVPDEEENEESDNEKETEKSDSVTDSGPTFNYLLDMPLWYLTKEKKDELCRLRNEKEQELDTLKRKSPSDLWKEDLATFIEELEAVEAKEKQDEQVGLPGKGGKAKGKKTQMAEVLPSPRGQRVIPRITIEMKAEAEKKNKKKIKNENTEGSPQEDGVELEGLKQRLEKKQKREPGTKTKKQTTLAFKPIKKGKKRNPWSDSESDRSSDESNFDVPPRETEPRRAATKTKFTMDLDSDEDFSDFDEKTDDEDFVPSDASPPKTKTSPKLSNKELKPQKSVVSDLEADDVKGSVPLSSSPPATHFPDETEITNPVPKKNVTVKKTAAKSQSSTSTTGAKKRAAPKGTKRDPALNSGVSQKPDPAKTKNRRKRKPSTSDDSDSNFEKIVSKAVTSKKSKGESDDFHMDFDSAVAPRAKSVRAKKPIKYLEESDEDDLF
Description: We also performed TOP II-catalyzed relaxation of plasmid DNA assays (FIG. 5-7) to evaluate if compounds could inhibit TOP II. […] The IC50 value of compounds 7, N7, N8, N14, N15, N18, and N19 were about 10, 10, 1, 10, 5, 1, and 1 μM, respectively (detect by TopoGEN TG2005H, TG-2000H-1).

TOP I (Topoisomerase I) [3] = molecular target: T1, TOP I (Topoisomerase I); assay: TOP I mediated supercoiled DNA relaxation assay; type: biochemical; settings: five different concentrations; TopoGEN TG2005H, TG-2000H-1
CCRF-CEM = type: cell-based; settings: Leukemia; 10^−5 molar; 48 hours; SRB
HL-60(TB) = type: cell-based; settings: Leukemia; 10^−5 molar; 48 hours; SRB
K-562 = type: cell-based; settings: Leukemia; 10^−5 molar; 48 hours; SRB
MOLT-4 = type: cell-based; settings: Leukemia; 10^−5 molar; 48 hours; SRB
RPMI-8226 = type: cell-based; settings: Leukemia; 10^−5 molar; 48 hours; SRB
SR = type: cell-based; settings: Leukemia; 10^−5 molar; 48 hours; SRB
A549/ATCC = type: cell-based; settings: Non-small cell lung cancer; 10^−5 molar; 48 hours; SRB
HOP-62 = type: cell-based; settings: Non-small cell lung cancer; 10^−5 molar; 48 hours; SRB
HOP-92 = type: cell-based; settings: Non-small cell lung cancer; 10^−5 molar; 48 hours; SRB
NCI-H226 = type: cell-based; settings: Non-small cell lung cancer; 10^−5 molar; 48 hours; SRB
NCI-H23 = type: cell-based; settings: Non-small cell lung cancer; 10^−5 molar; 48 hours; SRB
NCI-H460 = type: cell-based; settings: Non-small cell lung cancer; 10^−5 molar; 48 hours; SRB
NCI-H522 = type: cell-based; settings: Non-small cell lung cancer; 10^−5 molar; 48 hours; SRB
COLO 205 = type: cell-based; settings: Colon cancer; 10^−5 molar; 48 hours; SRB
HCC-2998 = type: cell-based; settings: Colon cancer; 10^−5 molar; 48 hours; SRB
HCT-116 = type: cell-based; settings: Colon cancer; 10^−5 molar; 48 hours; SRB
HCT-15 = type: cell-based; settings: Colon cancer; 10^−5 molar; 48 hours; SRB
HT29 = type: cell-based; settings: Colon cancer; 10^−5 molar; 48 hours; SRB
KM12 = assay: cells; type: cell-based; settings: Colon cancer; 10^−5 molar; 48 hours; SRB
SW-620 = type: cell-based; settings: Colon cancer; 10^−5 molar; 48 hours; SRB
SF-268 = type: cell-based; settings: CNS cancer; 10^−5 molar; 48 hours; SRB
SF-295 = type: cell-based; settings: CNS cancer; 10^−5 molar; 48 hours; SRB
SF-539 = type: cell-based; settings: CNS cancer; 10^−5 molar; 48 hours; SRB
SNB-19 = type: cell-based; settings: CNS cancer; 10^−5 molar; 48 hours; SRB
SNB-75 = type: cell-based; settings: CNS cancer; 10^−5 molar; 48 hours; SRB
U251 = type: cell-based; settings: CNS cancer; 10^−5 molar; 48 hours; SRB
LOX IMVI = type: cell-based; settings: Melanoma; 10^−5 molar; 48 hours; SRB
MALME-3M = type: cell-based; settings: Melanoma; 10^−5 molar; 48 hours; SRB
M14 = type: cell-based; settings: Melanoma; 10^−5 molar; 48 hours; SRB
MDA-MB-435 = type: cell-based; settings: Melanoma; 10^−5 molar; 48 hours; SRB
SK-MEL-2 = type: cell-based; settings: Melanoma; 10^−5 molar; 48 hours; SRB
SK-MEL-28 = type: cell-based; settings: Melanoma; 10^−5 molar; 48 hours; SRB
SK-MEL-5 = type: cell-based; settings: Melanoma; 10^−5 molar; 48 hours; SRB
UACC-257 = type: cell-based; settings: Melanoma; 10^−5 molar; 48 hours; SRB
UACC-62 = type: cell-based; settings: Melanoma; 10^−5 molar; 48 hours; SRB
IGROV1 = type: cell-based; settings: Ovarian cancer; 10^−5 molar; 48 hours; SRB
OVCAR-3 = type: cell-based; settings: Ovarian cancer; 10^−5 molar; 48 hours; SRB
OVCAR-4 = type: cell-based; settings: Ovarian cancer; 10^−5 molar; 48 hours; SRB
OVCAR-5 = type: cell-based; settings: Ovarian cancer; 10^−5 molar; 48 hours; SRB
OVCAR-8 = type: cell-based; settings: Ovarian cancer; 10^−5 molar; 48 hours; SRB
NCI/ADR-RES = type: cell-based; settings: Ovarian cancer; 10^−5 molar; 48 hours; SRB
SK-OV-3 = type: cell-based; settings: Ovarian cancer; 10^−5 molar; 48 hours; SRB
786-0 = type: cell-based; settings: Renal cancer; 10^−5 molar; 48 hours; SRB
A498 = type: cell-based; settings: Renal cancer; 10^−5 molar; 48 hours; SRB
ACHN = type: cell-based; settings: Renal cancer; 10^−5 molar; 48 hours; SRB
CAKI-1 = type: cell-based; settings: Renal cancer; 10^−5 molar; 48 hours; SRB
RXF 393 = type: cell-based; settings: Renal cancer; 10^−5 molar; 48 hours; SRB
SN12C = type: cell-based; settings: Renal cancer; 10^−5 molar; 48 hours; SRB
TK-10 = type: cell-based; settings: Renal cancer; 10^−5 molar; 48 hours; SRB
UO-31 = type: cell-based; settings: Renal cancer; 10^−5 molar; 48 hours; SRB
PC-3 = type: cell-based; settings: Prostate cancer; 10^−5 molar; 48 hours; SRB
DU-145 = type: cell-based; settings: Prostate cancer; 10^−5 molar; 48 hours; SRB
MCF7 = type: cell-based; settings: Breast cancer; 10^−5 molar; 48 hours; SRB
MDA-MB-231/ATCC = type: cell-based; settings: Breast cancer; 10^−5 molar; 48 hours; SRB
HS 578T = type: cell-based; settings: Breast cancer; 10^−5 molar; 48 hours; SRB
BT-549 = type: cell-based; settings: Breast cancer; 10^−5 molar; 48 hours; SRB
T-47D = type: cell-based; settings: Breast cancer; 10^−5 molar; 48 hours; SRB
MDA-MB-486 = type: cell-based; settings: Breast cancer; 10^−5 molar; 48 hours; SRB
60 cancer cell lines = assay: NCI 60-cell screen, SRB, whole panel (mean, delta, range); type: cell-based; settings: 10^−5 molar, 48 hours, SRB

inhibitory effect in TOP I activity assay compared with CPT (TOP I (Topoisomerase I) [1]): more potent inhibitory effects than CPT
IC50 ([2]; five different concentrations, TopoGEN TG2005H, TG-2000H-1, read-out: IC50 value, TOP II mediated supercoiled DNA relaxation): ~10 µM
melting point: 211 to 213 °C
IC50 (TOP I (Topoisomerase I) [3]): ~10 µM
Structure (SMILES): O=c1c2cc(Cl)ccc2sc2c(N3CCNCC3)nc3ccccc3c12 [Compound 7, 10-Chloro-6-(piperazin-1-yl)-12H-thiochromeno[2,3-c]quinolin-12-one]
inhibitory effect in TOP II relaxation assay compared with VP-16 ([2]; primary assay at 25 and/or 50 μM): more potent inhibitory effects than the positive agent VP-16

Structure (SMILES): O=c1c2cc(Cl)ccc2sc2c(N3CCN(Cc4ccccc4)CC3)nc3ccccc3c12 [Compound 11, 6-(4-Benzylpiperazin-1-yl)-10-chloro-12H-thiochromeno[2,3-c]quinolin-12-one]
Growth percent CCRF-CEM (CCRF-CEM): 95.42%
Growth percent HL-60(TB) (HL-60(TB)): 100.96%
Growth percent K-562 (K-562): 87.84%
Growth percent MOLT-4 (MOLT-4): 90.91%
Growth percent RPMI-8226 (RPMI-8226): 96.63%
Growth percent SR (SR): 85.15%
Growth percent A549/ATCC (A549/ATCC): 106.37%
Growth percent HOP-62 (HOP-62): 87.72%
Growth percent HOP-92 (HOP-92): 70.17%
Growth percent NCI-H226 (NCI-H226): 88.98%
Growth percent NCI-H23 (NCI-H23): 89.94%
Growth percent NCI-H460 (NCI-H460): 95.57%
Growth percent NCI-H522 (NCI-H522): 96.69%
Growth percent COLO 205 (COLO 205): 105.64%
Growth percent HCC-2998 (HCC-2998): 99.32%
Growth percent HCT-116 (HCT-116): 98.59%
Growth percent HCT-15 (HCT-15): 94.51%
Growth percent HT29 (HT29): 102.71%
Growth percent KM12 (KM12): 107.75%
Growth percent SW-620 (SW-620): 93.08%
Growth percent SF-268 (SF-268): 100.42%
Growth percent SF-295 (SF-295): 94.34%
Growth percent SF-539 (SF-539): 108.56%
Growth percent SNB-19 (SNB-19): 95.52%
Growth percent SNB-75 (SNB-75): 82.62%
Growth percent U251 (U251): 96.69%
Growth percent LOX IMVI (LOX IMVI): 94.22%
Growth percent MALME-3M (MALME-3M): 112.36%
Growth percent M14 (M14): 93.00%
Growth percent MDA-MB-435 (MDA-MB-435): 96.99%
Growth percent SK-MEL-2 (SK-MEL-2): 107.37%
Growth percent SK-MEL-28 (SK-MEL-28): 104.19%
Growth percent SK-MEL-5 (SK-MEL-5): 98.38%
Growth percent UACC-257 (UACC-257): 95.39%
Growth percent UACC-62 (UACC-62): 96.00%
Growth percent IGROV1 (IGROV1): 93.49%
Growth percent OVCAR-3 (OVCAR-3): 101.69%
Growth percent OVCAR-4 (OVCAR-4): 102.43%
Growth percent OVCAR-5 (OVCAR-5): 111.92%
Growth percent OVCAR-8 (OVCAR-8): 98.54%
Growth percent NCI/ADR-RES (NCI/ADR-RES): 98.31%
Growth percent SK-OV-3 (SK-OV-3): 94.79%
Growth percent 786-0 (786-0): 105.57%
Growth percent A498 (A498): 94.17%
Growth percent ACHN (ACHN): 96.39%
Growth percent CAKI-1 (CAKI-1): 94.03%
Growth percent RXF 393 (RXF 393): 100.71%
Growth percent SN12C (SN12C): 97.70%
Growth percent TK-10 (TK-10): 124.99%
Growth percent UO-31 (UO-31): 64.91%
Growth percent PC-3 (PC-3): 89.12%
Growth percent DU-145 (DU-145): 111.61%
Growth percent MCF7 (Table 2: MCF) (MCF7): 68.32%
Growth percent MDA-MB-231/ATCC (MDA-MB-231/ATCC): 89.11%
Growth percent HS 578T (HS 578T): 76.42%
Growth percent BT-549 (BT-549): 114.05%
Growth percent T-47D (T-47D): 89.22%
Growth percent MDA-MB-486 (MDA-MB-486): 98.53%
Growth percent, Delta (60 cancer cell lines; delta over the cell panel): 31.28%
Growth percent, Mean (60 cancer cell lines; mean over the cell panel): 96.19%
Growth percent, Range (60 cancer cell lines; range over the cell panel): 60.08%
melting point: 191 to 193 °C
